# Assay results from ChEMBL document CHEMBL1671662, “In vitro activities of telavancin and six comparator agents against anaerobic bacterial isolates” (2009).
# Key:
# [1] = system: Ruminococcus flavefaciens; experiment: Antibacterial activity against Ruminococcus flavefaciens by CLSI M11-A6 agar dilution method; assay type: functional
# [2] = system: Bifidobacterium breve; experiment: Antibacterial activity against Bifidobacterium breve by CLSI M11-A6 agar dilution method; assay type: functional
# [3] = system: Prevotella buccae; experiment: Antibacterial activity against Prevotella buccae by CLSI M11-A6 agar dilution method; assay type: functional; conditions: Segatella buccae
# [4] = system: Ruminococcus lactaris; experiment: Antibacterial activity against Ruminococcus lactaris by CLSI M11-A6 agar dilution method; assay type: functional
# [5] = system: Bifidobacterium pseudolongum; experiment: Antibacterial activity against Bifidobacterium pseudolongum by CLSI M11-A6 agar dilution method; assay type: functional
# [6] = system: Ruminococcus torques; experiment: Antibacterial activity against Ruminococcus torques by CLSI M11-A6 agar dilution method; assay type: functional; conditions: Mediterraneibacter torques
# [7] = system: Bifidobacterium adolescentis; experiment: Antibacterial activity against Bifidobacterium adolescentis by CLSI M11-A6 agar dilution method; assay type: functional
# [8] = system: Clostridium spiroforme; experiment: Antibacterial activity against Clostridium spiroforme by CLSI M11-A6 agar dilution method; assay type: functional; conditions: Thomasclavelia spiroformis
# [9] = system: Coprobacillus cateniformis; experiment: Antibacterial activity against Coprobacillus cateniformis by CLSI M11-A6 agar dilution method; assay type: functional
# [10] = system: Clostridium scindens; experiment: Antibacterial activity against Clostridium scindens by CLSI M11-A6 agar dilution method; assay type: functional
# [11] = system: Clostridium glycolicum; experiment: Antibacterial activity against Clostridium glycolicum by CLSI M11-A6 agar dilution method; assay type: functional; conditions: Terrisporobacter glycolicus
# [12] = system: Clostridium sporosphaeroides; experiment: Antibacterial activity against Clostridium sporosphaeroides by CLSI M11-A6 agar dilution method; assay type: functional; conditions: Faecalispora sporosphaeroides
# [13] = system: Prevotella denticola; experiment: Antibacterial activity against Prevotella P denticola by CLSI M11-A6 agar dilution method; assay type: functional
# [14] = system: Parabacteroides merdae; experiment: Antibacterial activity against Parabacteroides merdae by CLSI M11-A6 agar dilution method; assay type: functional
# [15] = system: Coriobacterium; experiment: Antibacterial activity against […] by CLSI M11-A6 agar dilution method; assay type: functional
# [16] = system: Clostridium disporicum; experiment: Antibacterial activity against Clostridium disporicum by CLSI M11-A6 agar dilution method; assay type: functional
# [17] = system: Clostridium bartlettii; experiment: Antibacterial activity against Clostridium bartlettii by CLSI M11-A6 agar dilution method; assay type: functional; conditions: Intestinibacter bartlettii
# [18] = system: Finegoldia magna; experiment: Antibacterial activity against Finegoldia magna by CLSI M11-A6 agar dilution method; assay type: functional
# [19] = system: Clostridium subterminale; experiment: Antibacterial activity against Clostridium subterminale by CLSI M11-A6 agar dilution method; assay type: functional
# [20] = system: Hoylesella oralis; experiment: Antibacterial activity against Prevotella oralis by CLSI M11-A6 agar dilution method; assay type: functional
# [21] = system: Ruminococcus gnavus; experiment: Antibacterial activity against Ruminococcus gnavus by CLSI M11-A6 agar dilution method; assay type: functional; conditions: Mediterraneibacter gnavus
# [22] = system: Bifidobacterium dentium; experiment: Antibacterial activity against Bifidobacterium dentium by CLSI M11-A6 agar dilution method; assay type: functional
# [23] = system: Paeniclostridium sordellii; experiment: Antibacterial activity against Clostridium sordellii by CLSI M11-A6 agar dilution method; assay type: functional; conditions: Paraclostridium sordellii
# [24] = system: Anaerococcus prevotii; experiment: Antibacterial activity against Anaerococcus prevotii by CLSI M11-A6 agar dilution method; assay type: functional
# [25] = system: Actinomyces naeslundii; experiment: Antibacterial activity against Actinomyces naeslundii by CLSI M11-A6 agar dilution method; assay type: functional
# [26] = Antibacterial activity against Bifidobacterium infantis by CLSI M11-A6 agar dilution method; assay type: functional, Bifidobacterium longum subsp. infantis; conditions: Bifidobacterium longum
# [27] = system: Bifidobacterium longum; experiment: Antibacterial activity against Bifidobacterium longum by CLSI M11-A6 agar dilution method; assay type: functional
# [28] = system: Bilophila wadsworthia; experiment: Antibacterial activity against Bilophila wadsworthia by CLSI M11-A6 agar dilution method; assay type: functional
# [29] = system: Parabacteroides distasonis; experiment: Antibacterial activity against Parabacteroides distasonis by CLSI M11-A6 agar dilution method; assay type: functional
# [30] = system: Clostridium leptum; experiment: Antibacterial activity against Clostridium leptum by CLSI M11-A6 agar dilution method; assay type: functional
# [31] = system: Clostridium sp.; experiment: Antibacterial activity against Clostridium sp. by CLSI M11-A6 agar dilution method; assay type: functional
# [32] = system: Ruminococcus obeum; experiment: Antibacterial activity against Ruminococcus obeum by CLSI M11-A6 agar dilution method; assay type: functional; conditions: Blautia obeum
# [33] = system: Blautia luti; experiment: Antibacterial activity against Ruminococcus luti by CLSI M11-A6 agar dilution method; assay type: functional
# [34] = system: Anaerococcus tetradius; experiment: Antibacterial activity against Anaerococcus tetradius by CLSI M11-A6 agar dilution method; assay type: functional
# [35] = system: Clostridium beijerinckii; experiment: Antibacterial activity against Clostridium beijerinckii by CLSI M11-A6 agar dilution method; assay type: functional
# [36] = system: Bacteroides thetaiotaomicron; experiment: Antibacterial activity against Bacteroides thetaiotaomicron by CLSI M11-A6 agar dilution method; assay type: functional
# [37] = system: [Clostridium] innocuum; experiment: Antibacterial activity against Clostridium innocuum by CLSI M11-A6 agar dilution method; assay type: functional
# [38] = system: Bifidobacterium bifidum; experiment: Antibacterial activity against Bifidobacterium bifidum by CLSI M11-A6 agar dilution method; assay type: functional
# [39] = system: Enterocloster clostridioformis; experiment: Antibacterial activity against Clostridium clostridioforme by CLSI M11-A6 agar dilution method; assay type: functional
# [40] = system: Catenibacterium mitsuokai; experiment: Antibacterial activity against Catenibacterium mitsuokai by CLSI M11-A6 agar dilution method; assay type: functional
# [41] = system: Prevotella corporis; experiment: Antibacterial activity against Prevotella corporis by CLSI M11-A6 agar dilution method; assay type: functional
# [42] = system: Fusobacterium mortiferum; experiment: Antibacterial activity against Fusobacterium mortiferum by CLSI M11-A6 agar dilution method; assay type: functional
# [43] = system: Streptococcus anginosus; experiment: Antibacterial activity against Streptococcus anginosus by CLSI M11-A6 agar dilution method; assay type: functional
smiles,measurement,setting,value
CC(=O)NC[C@H]1CN(c2ccc(N3CCOCC3)c(F)c2)C(=O)O1 [LINEZOLID],MIC50,[1],2 µg/mL
same,MIC90,[1],4 µg/mL
same,MIC50,[2],1 µg/mL
same,MIC90,[2],8 µg/mL
same,MIC50,[3],2 µg/mL
same,MIC90,[3],2 µg/mL
same,MIC50,[4],2 µg/mL
same,MIC90,[4],4 µg/mL
same,MIC50,[5],1 µg/mL
same,MIC90,[5],8 µg/mL
same,MIC50,[6],2 µg/mL
same,MIC90,[6],4 µg/mL
same,MIC50,[7],1 µg/mL
same,MIC90,[7],8 µg/mL
same,MIC50,[8],2 µg/mL
same,MIC90,[8],4 µg/mL
same,MIC50,[9],1 µg/mL
same,MIC90,[9],8 µg/mL
same,MIC50,[10],2 µg/mL
same,MIC90,[10],4 µg/mL
same,MIC50,[11],2 µg/mL
same,MIC90,[11],4 µg/mL
same,MIC50,[12],2 µg/mL
same,MIC90,[12],4 µg/mL
same,MIC50,[13],2 µg/mL
same,MIC90,[13],2 µg/mL
same,MIC50,[14],4 µg/mL
same,MIC90,[14],4 µg/mL
same,MIC50,[15],1 µg/mL
same,MIC90,[15],8 µg/mL
same,MIC50,[16],2 µg/mL
same,MIC90,[16],4 µg/mL
same,MIC50,[17],2 µg/mL
same,MIC90,[17],4 µg/mL
same,MIC50,[18],1 µg/mL
same,MIC90,[18],2 µg/mL
same,MIC50,[19],4 µg/mL
same,MIC90,[19],4 µg/mL
same,MIC50,[20],2 µg/mL
same,MIC90,[20],2 µg/mL
same,MIC50,[21],2 µg/mL
same,MIC90,[21],2 µg/mL
same,MIC50,[22],1 µg/mL
same,MIC90,[22],8 µg/mL
same,MIC50,[23],2 µg/mL
same,MIC90,[23],4 µg/mL
same,MIC50,[24],1 µg/mL
same,MIC90,[24],2 µg/mL
same,MIC50,[25],1 µg/mL
same,MIC90,[25],8 µg/mL
same,MIC90,[26],8 µg/mL
same,MIC50,[27],1 µg/mL
same,MIC90,[27],8 µg/mL
same,MIC50,[28],4 µg/mL
same,MIC90,[28],16 µg/mL
same,MIC50,[29],4 µg/mL
same,MIC90,[29],4 µg/mL
same,MIC50,[30],2 µg/mL
same,MIC90,[30],4 µg/mL
same,MIC50,[31],2 µg/mL
same,MIC90,[31],4 µg/mL
same,MIC,[32],1 µg/mL
same,MIC50,[32],1 µg/mL
same,MIC90,[32],2 µg/mL
same,MIC50,[33],2 µg/mL
same,MIC90,[33],4 µg/mL
same,MIC50,[34],1 µg/mL
same,MIC90,[34],2 µg/mL
same,MIC50,[35],2 µg/mL
same,MIC90,[35],4 µg/mL
same,MIC50,[36],4 µg/mL
same,MIC90,[36],8 µg/mL
same,MIC,[37],2 µg/mL
same,MIC50,[37],2 µg/mL
same,MIC90,[37],4 µg/mL
same,MIC50,[38],1 µg/mL
same,MIC90,[38],8 µg/mL
same,MIC50,[39],4 µg/mL
same,MIC90,[39],4 µg/mL
same,MIC50,[40],1 µg/mL
same,MIC90,[40],8 µg/mL
same,MIC50,[41],2 µg/mL
same,MIC90,[41],2 µg/mL
same,MIC50,[42],1 µg/mL
same,MIC90,[42],1 µg/mL
same,MIC50,[43],2 µg/mL
same,MIC90,[43],4 µg/mL
